Legend:
Format in all cases: toxicity, cell-based
Fibroblast = test: Incucyte cell viability with human fibroblast; details: 10 µM, compound concentration 10 uM
HEK-293T = test: Incucyte cell viability with HEK293T; details: human, 10 µM, compound concentration 10 uM
U2OS = test: Incucyte cell viability with U2OS; details: human, 10 µM, compound concentration 10 uM
Further: unitless GR value; below 1 slowed growth and below 0 cell loss.

SMILES	Growth Rate (Fibroblast; 0 h, replicate number 2)	Growth Rate (Fibroblast; 6 h, replicate number 1)	Growth Rate (Fibroblast; 6 h, replicate number 2)	Growth Rate (Fibroblast; 12 h, replicate number 2)	Growth Rate (HEK-293T; 0 h, replicate number 1)	Growth Rate (U2OS; 6 h, replicate number 2)	Growth Rate (U2OS; 12 h, replicate number 2)	Growth Rate (U2OS; 18 h, replicate number 1)	Growth Rate (U2OS; 18 h, replicate number 2)	Growth Rate (U2OS; 24 h, replicate number 1)	Growth Rate (U2OS; 24 h, replicate number 2)	Growth Rate (HEK-293T; 24 h, replicate number 2)	Growth Rate (U2OS; 0 h, replicate number 2)	Growth Rate (HEK-293T; 6 h, replicate number 1)	Growth Rate (HEK-293T; 12 h, replicate number 2)	Growth Rate (U2OS; 0 h, replicate number 1)	Growth Rate (Fibroblast; 18 h, replicate number 2)	Growth Rate (Fibroblast; 24 h, replicate number 2)	Growth Rate (U2OS; 6 h, replicate number 1)	Growth Rate (U2OS; 12 h, replicate number 1)	other results
Cc1csc(S(=O)(=O)N(CC(C)C)c2cc3c(cc2OCc2ccc(C(=O)O)cc2)CCC3)n1	-0.95	0.68	0.06	0.69	-0.23	0.87	0.88	0.99	0.83	0.99	0.86										Growth Rate (HEK-293T; 0 h, replicate number 2): -0.11
CC1=NC(C=C2C(=O)Nc3ccc(F)cc32)=C(C)C1C(=O)NCC(O)CN1CCOCC1 (centres undefined)		-0.99			0.76							0.99	-0.99								Growth Rate (Fibroblast; 0 h, replicate number 1): 0.4; Growth Rate (HEK-293T; 0 h, replicate number 2): -0.67
CNc1nc(Nc2ccc(C(=O)N3CCOCC3)cc2OC)nc2[nH]cc(Cl)c12	-0.43						0.5					0.24		0.03	-0.05	-0.99					Growth Rate (Fibroblast; 0 h, replicate number 1): -0.95; Growth Rate (HEK-293T; 6 h, replicate number 2): -0.31; Growth Rate (HEK-293T; 12 h, replicate number 1): 0.06; Growth Rate (HEK-293T; 18 h, replicate number 1): 0.26; Growth Rate (HEK-293T; 18 h, replicate number 2): 0.08; Growth Rate (HEK-293T; 24 h, replicate number 1): 0.27
COc1cc(C(=O)NCCOCCOCCOCC(=O)N[C@H](C(=O)N2C[C@H](O)C[C@H]2C(=O)NCc2ccc(-c3scnc3C)cc2)C(C)(C)C)ccc1Nc1ncc(C(F)(F)F)c(Oc2cccc3c2C(=O)CC3)n1	0.72	0.15	-0.8	0.43			0.87		0.66	0.61	0.68	-0.02	0.63	0.29	0.02		0.85	0.84			Growth Rate (Fibroblast; 12 h, replicate number 1): 0.45; Growth Rate (Fibroblast; 18 h, replicate number 1): 0.28; Growth Rate (Fibroblast; 24 h, replicate number 1): 0.14; Growth Rate (HEK-293T; 12 h, replicate number 1): -0.01; Growth Rate (HEK-293T; 18 h, replicate number 1): 0; Growth Rate (HEK-293T; 18 h, replicate number 2): -0.01; Growth Rate (HEK-293T; 24 h, replicate number 1): 0.03
COc1cc2nc(C)nc(N[C@H](C)c3cc(N)cc(C(F)(F)F)c3)c2cc1O[C@H]1CCOC1		0.72	-0.84	0.03		0.96		0.93		0.83				0.91		0.75	0.65	0.88	0.51		Growth Rate (Fibroblast; 0 h, replicate number 1): -1; Growth Rate (HEK-293T; 12 h, replicate number 1): 0.88
CC1(C)CC(CN2CCC(F)(CNC(=O)c3cc(Cl)cc(Cl)c3)CC2)CCO1 (centres undefined)		-1	0.34			0.8								0.4		-0.43		0.97	0.71	0.85	
O=C(O)CCn1c2c(c3ccccc31)C[C@H](NS(=O)(=O)c1ccc(F)cc1)CC2 [RAMATROBAN]				0.99	0.1											0.53	0.89	0.74	0.88		Growth Rate (HEK-293T; 0 h, replicate number 2): 0.04
O=C(Nc1cccc(C(F)(F)F)c1)c1cccc(-n2cc(-c3ccco3)nn2)c1	-0.94	0.82					0.81		0.95	0.9			0.15	0.68	1				0.72	0.78	Growth Rate (Fibroblast; 24 h, replicate number 1): 0.97; Growth Rate (HEK-293T; 6 h, replicate number 2): 0.56; Growth Rate (HEK-293T; 12 h, replicate number 1): 0.8; Growth Rate (HEK-293T; 18 h, replicate number 1): 0.67; Growth Rate (HEK-293T; 24 h, replicate number 1): 0.76
NC(=O)C1CCCc2c1[nH]c1ccc(Cl)cc21 (centres undefined)	0.51			0.9	0.75			0.88		1	0.96	0.79	0.68		0.53	0.85		0.88	0.7	1	Growth Rate (HEK-293T; 0 h, replicate number 2): -0.98; Growth Rate (HEK-293T; 6 h, replicate number 2): 0.22; Growth Rate (HEK-293T; 18 h, replicate number 2): 0.66
Cc1cc2c(-c3ccco3)cnc(N[C@@H]3CCN(C)C[C@H]3C(=O)NC3CCCCC3)c2[nH]c1=O [GSK789]		0.33	0		0.12	0.89					1					-0.1			0.92	1	
Cc1cc([N+](=O)[O-])c(NS(=O)(=O)c2cccc(C(=O)O)c2)cc1-c1cccnc1 [ALOFANIB]	0.25	0.27	0.26	0.74	-0.38	0.28	0.55	0.93	0.64		0.6	0.79	0.06		0.68	-0.35	0.99	0.92	0.68	0.39	Growth Rate (Fibroblast; 12 h, replicate number 1): 0.56; Growth Rate (Fibroblast; 18 h, replicate number 1): 0.5; Growth Rate (Fibroblast; 24 h, replicate number 1): 0.8; Growth Rate (HEK-293T; 6 h, replicate number 2): 0.57; Growth Rate (HEK-293T; 12 h, replicate number 1): 0.91; Growth Rate (HEK-293T; 18 h, replicate number 1): 0.65; Growth Rate (HEK-293T; 18 h, replicate number 2): 0.78; Growth Rate (HEK-293T; 24 h, replicate number 1): 0.75
FC(F)(F)c1ccc(Nc2ncnc3cc(-c4ncccc4C(F)(F)F)ccc23)cc1 [NGD-8243]		0.97	-1	-0.24		0.82	0.71	0.96	0.8	1	0.88	0.88			0.89		0.27	0.37		0.94	Growth Rate (Fibroblast; 12 h, replicate number 1): -1; Growth Rate (HEK-293T; 18 h, replicate number 2): 0.92
CCCN1C(=O)c2ccc(Cl)cc2Nc2ncccc21		0.56	-0.63	0.55			0.68		0.91	0.98					0.86	0.38	0.62		0.65		Growth Rate (Fibroblast; 0 h, replicate number 1): -1; Growth Rate (Fibroblast; 12 h, replicate number 1): 0.9; Growth Rate (Fibroblast; 18 h, replicate number 1): 0.68; Growth Rate (Fibroblast; 24 h, replicate number 1): 0.63
